Measured values taken from ChEMBL document CHEMBL1926629, “Design, synthesis and insight into the structure-activity relationship of 1,3-disubstituted indazoles as novel HIF-1 inhibitors” (Bioorg Med Chem Lett, 2011).
pIC50: −log10 of the molar value.

Key:
[1] = Inhibition of hypoxia-induced HIF-1 transcriptional activity by luciferase reporter assay
[2] = target: Hypoxia-inducible factor 1-alpha (Homo sapiens) (UniProt Q16665); assay: Inhibition of hypoxia-induced HIF1alpha protein reduction in human Hep3B cells by Western blot analysis; type: cell-based; details: Hep 3B2
Hypoxia-inducible factor 1-alpha (Homo sapiens), sequence (Q16665 whole entry, looked up): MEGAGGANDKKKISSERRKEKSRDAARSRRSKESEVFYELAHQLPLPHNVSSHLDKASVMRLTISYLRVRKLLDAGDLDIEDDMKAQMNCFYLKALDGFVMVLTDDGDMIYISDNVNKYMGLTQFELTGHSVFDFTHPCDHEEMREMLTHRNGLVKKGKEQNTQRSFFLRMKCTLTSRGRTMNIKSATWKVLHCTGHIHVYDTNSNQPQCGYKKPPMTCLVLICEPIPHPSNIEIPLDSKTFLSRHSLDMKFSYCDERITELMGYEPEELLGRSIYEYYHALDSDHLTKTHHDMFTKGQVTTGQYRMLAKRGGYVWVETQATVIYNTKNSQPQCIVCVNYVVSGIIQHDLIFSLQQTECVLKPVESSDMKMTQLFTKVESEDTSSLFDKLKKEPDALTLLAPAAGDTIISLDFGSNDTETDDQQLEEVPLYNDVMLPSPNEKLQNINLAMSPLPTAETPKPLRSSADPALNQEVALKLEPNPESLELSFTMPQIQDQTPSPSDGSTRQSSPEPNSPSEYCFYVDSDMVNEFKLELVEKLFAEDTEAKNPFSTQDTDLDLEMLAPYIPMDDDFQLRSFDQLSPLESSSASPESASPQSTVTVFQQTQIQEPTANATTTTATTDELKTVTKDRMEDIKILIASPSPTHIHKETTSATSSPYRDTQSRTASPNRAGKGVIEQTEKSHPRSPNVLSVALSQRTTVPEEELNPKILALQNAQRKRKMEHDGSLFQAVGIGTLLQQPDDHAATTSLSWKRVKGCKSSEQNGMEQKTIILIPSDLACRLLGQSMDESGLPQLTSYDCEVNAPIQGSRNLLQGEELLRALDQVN

Row | Compound | pIC50 [1] | inhibition [2]
1 | CNCc1ccc(-c2nn(C)c3ccccc23)o1 | 5.11 | 
2 | OCc1ccc(-c2[nH]nc3ccccc23)o1 | 5.30 | 
3 | O=S(=O)(c1ccccc1)n1nc(-c2ccc(CO)o2)c2ccccc21 | 5.89 | 
4 | Cn1nc(-c2ccc(CN3CCOCC3)o2)c2ccccc21 | 5.72 | 
5 | Cn1nc(-c2ccc(CN)o2)c2ccccc21 | < 4.52 | 
6 | Cn1nc(-c2cc(CO)no2)c2ccccc21 | < 4.52 | 
7 | Cn1nc(-c2ccc(CO)o2)c2ccccc21 | 5.05 | 
8 | CC(=O)NCc1ccc(-c2nn(C)c3ccccc23)o1 | 4.87 | 
9 | CC(=O)OCc1ccc(-c2nn(C)c3ccccc23)o1 | 4.77 | 
10 | Cn1nc(-c2ccc(CN=[N+]=[N-])o2)c2ccccc21 | < 4.52 | 
11 | CN(C)Cc1ccc(-c2nn(C)c3ccccc23)o1 | 5.07 | 
12 | Cn1nc(-c2nc(CO)co2)c2ccccc21 | < 4.52 | 
13 | Cn1nc(-c2ncc(CO)s2)c2ccccc21 | < 4.52 | 
14 | Cn1nc(-c2ccc(CN3CCCCC3)o2)c2ccccc21 | 5.70 | 
15 | CC(C)(C)C(=O)OCc1ccc(-c2nn(Cc3ccccc3)c3ccccc23)o1 | 6.05 | 

Now from value to compound:

Row | pIC50 [1] | inhibition [2] | Compound
16 | 5.64 |  | CC(=O)OCc1ccc(-c2nn(Cc3ccccc3)c3ccccc23)o1
17 | < 4.52 |  | OCc1cnc(-c2nn(Cc3ccccc3)c3ccccc23)o1
18 | < 4.52 |  | OCC1CN=C(c2nn(Cc3ccccc3)c3ccccc23)O1 (stereo not drawn)
19 | 5.92 |  | OCc1ccc(-c2nn(Cc3ccccc3)c3ccccc23)o1
20 | < 4.52 |  | Cn1nc(-c2ncc(CO)o2)c2ccccc21
21 | < 4.52 |  | OCc1coc(-c2nn(Cc3ccccc3)c3ccccc23)n1
22 | 6.13 | Dose-dependent effect | CC(C)C(=O)OCc1ccc(-c2nn(Cc3ccccc3)c3ccccc23)o1
23 | 6.05 |  | COC(=O)c1ccc(-c2nn(Cc3ccccc3)c3ccccc23)o1
24 | < 4.52 |  | OCc1cnc(-c2nn(Cc3ccccc3)c3ccccc23)s1
25 | 4.62 |  | OCc1cc(-c2nn(Cc3ccccc3)c3ccccc23)on1
26 | < 4.52 |  | [N-]=[N+]=NCc1ccc(-c2nn(Cc3ccccc3)c3ccccc23)o1
27 | 4.92 |  | NC(=O)c1ccc(-c2nn(Cc3ccccc3)c3ccccc23)o1
